Test results reported in patent US20210228675A1, “HYPERTROPHIC SCAR INHIBITING COMPOSITION” (FUKUOKA UNIVERSITY, priority 2018, published 2021).
Like-named read-outs stand apart in the source and are kept apart here. Non-standard residues stand in square brackets, D forms with d. Residues, ends and D or L forms follow the SMILES beside them. Hyp = O=C(O)[C@@H]1C[C@@H](O)CN1

What was measured:
[1] = Transfer of Pro-Hyp in blood after administration (LC-MS/MS); assay type: in vivo, C57 BL/6N mice; details: for Tmax: female, C57 BL/6N, mouse, blood, mice without wound, read-out: time at which blood concentration of Pro-Hyp reached a peak (converted)
Procedure: To C57 BL/6N mice (8 to 10 weeks of age, female) (N=4, per group) in which no wound site is formed, a physiological saline solution (500 nmol/200 μL) of the dipeptide consisting of the amino acid sequence of Pro-Hyp (which may be hereinafter referred to as simply “Pro-Hyp”) is administered intraperitoneally by injection (single administration) or a physiological saline solution (2500 nmol/200 μL) of Pro-Hyp was orally administered using a probe (single administration). After administration, blood was collected over time and Pro-Hyp occurred in blood was measured by LC-MS/MS method. The measurement conditions of LC-MS/MS method were as follows.
Collected blood was 2 times diluted in physiological saline and then centrifugation was performed under conditions at 20° C., 500×g, for 15 minutes. To the supernatant recovered after the centrifugation, 3 volumes of 100% ethanol were added. The supernatant to which 100% ethanol had been added was centrifuged at 20° C., 13000 rpm, for 15 minutes to perform deproteinization. Subsequently, the deproteinized sample was 10 times diluted in 50 mM ammonium bicarbonate and analyzed by LC-MS/MS. For the LC conditions, the analysis was conducted using CAPCELL PAK C1 UG120 10 mm×I.D. 2.0 mm (OSAKA SODA CO., LTD.) as a guard column and the column Hypersil Gold PFP 150 mm×I.D. 2.1 mm, 5 μm (manufactured by Thermo Fisher Scientific, Inc.). The analysis conditions were Mobile phase A MeOH, Mobile phase B a 2% formic acid aqueous solution containing 2 mM ammonium acetate, injection volume 5 μL, and gradient of Table 1 below.
The MS/MS was conducted using a tandem mass spectrometer (TSQ Vantage (manufactured by Thermo Fisher Scientific, Inc.)) under conditions of Method of ionization: Positive ESI, Spray voltage: 3000 V, Vaporizer: 300° C., Sheath gas: 30, Aux gas: 15, Capillary temperature: 250° C., MRM conditions: Parent Mass 229.1, Product Mass 70, Collision energy: 29 ev, S-Lens: 68.
Moreover, in the intraperitoneal administration, the Pro-Hyp concentration reached very high since it transferred in blood without gastrointestinal absorption. […] The C57 BL/6N mice in which no wound site was formed were used in this experiment, it is considered that a similar result is also obtained with Model-1 mice and Model-2 mice generated from the same line of mice.

[2] = system: granulation tissue in wound site of abdominal wall circular incision model (Model-2) mice; test: Formation of granulation tissue by administration of various polypeptides in Model-2 mice; assay type: in vivo, C57 BL/6N mice; details: Day 7; i.p. once a day for 7 days, doses of Table 7; control sparse; FIG. 9
Procedure: In this Example, aiming to examine granulation tissue formed in the peritoneum layer under tension, a novel model (Model-2) of granulation tissue formation that occurs between the peritoneum layers, which are under the minimal effect of the healing response from the skin layer and under direct influence of the tension of muscles, was generated in the following procedures. Female C57 BL/6N mice at 8 to 10 weeks of age were used. Anesthesia was introduced by administering 200 μL per animal (0.065 mg/g weight) of the anesthetic Somnopentyl (manufactured by Shering-Plough Corporation) to the peritoneal cavity. After the introduction of anesthesia, abdominal skin was cut open 1.5 cm along the midline using scissors for operations. […] Subsequently, the center part of the abdominal wall was picked up with round tip tweezers with an outside diameter of 3 mm, and the tissue in the central part of the abdominal wall was completely removed surgically in a circle with curved tip micro-operation scissors (Bottom panel in FIG. 1). After the incision, the positions 0.25 cm apart from the upper end and 0.25 cm apart from the bottom end of the incised skin (wound site) were sewed up to remove the tension of the skin. Subsequently, the skin was wrapped with Tegaderm and an underwear-shaped silicon protector was further put on to prevent the self-harm of the wound site. […]

[3] = oral, single administration 2500 nmol/200 μL

| Compound | Tmax ([1]; ip, intraperitoneal, single administration 500 nmol/200 μL) [min] | Tmax [1, 3] [min] | time at which blood concentration decreased to a baseline level ([1]; intraperitoneal, single administration 500 nmol/200 μL) [h] | time at which blood concentration decreased to a baseline level [1, 3] [h] | collagen fibers in granulation tissue, Masson trichrome stain [2] |
| --- | --- | --- | --- | --- | --- |
| O=C(O)[C@@H]1C[C@@H](O)CN1C(=O)[C@@H]1CCCN1 [Pro-Hyp] (H-Pro-[Hyp]-OH; N-terminus and C-terminus assumed) | 15 | 15 | 3 | 3 |  |
| Hyp-Gly |  |  |  |  | the collagen fibers were dense and matured as the tissue |
